Test results: ChEMBL document CHEMBL2073982, “Bumetanide is not transported by the Ntcp or by the oatp: evidence for a third organic anion transporter in rat liver cells” (Biochim Biophys Acta, 1996)

Target: T1, Solute carrier organic anion transporter family member 1A1 (Rattus norvegicus, UniProt P46720)
T1 sequence (P46720 whole entry): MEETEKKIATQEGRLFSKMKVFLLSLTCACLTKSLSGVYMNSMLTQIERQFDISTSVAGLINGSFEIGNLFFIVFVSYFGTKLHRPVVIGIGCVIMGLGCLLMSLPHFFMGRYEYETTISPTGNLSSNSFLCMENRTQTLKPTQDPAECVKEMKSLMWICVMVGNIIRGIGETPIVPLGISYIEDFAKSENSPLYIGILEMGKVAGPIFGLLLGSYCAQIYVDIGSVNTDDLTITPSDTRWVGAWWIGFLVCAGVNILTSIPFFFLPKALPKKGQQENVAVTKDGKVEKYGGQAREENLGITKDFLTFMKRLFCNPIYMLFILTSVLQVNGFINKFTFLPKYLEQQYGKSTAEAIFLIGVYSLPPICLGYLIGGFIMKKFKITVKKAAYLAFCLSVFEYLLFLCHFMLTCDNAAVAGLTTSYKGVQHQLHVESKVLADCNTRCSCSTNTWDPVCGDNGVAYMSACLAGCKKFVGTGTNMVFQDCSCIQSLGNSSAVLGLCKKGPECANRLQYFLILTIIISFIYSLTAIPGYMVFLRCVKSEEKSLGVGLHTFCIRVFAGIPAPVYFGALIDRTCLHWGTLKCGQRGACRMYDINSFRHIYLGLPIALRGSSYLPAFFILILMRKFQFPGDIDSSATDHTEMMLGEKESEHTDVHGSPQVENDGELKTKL
Assay: TP_TRANSPORTER: uptake in Xenopus laevis oocytes
Format: functional, cell-based
Settings: oocyte

SMILES: CCCCNc1cc(C(=O)O)cc(S(N)(=O)=O)c1Oc1ccccc1 [BUMETANIDE]
- Activity: is not a substrate [-]
